For 14 compounds, AC50 and activity change, negative = cytotoxicity results are on record in PubChem BioAssay AID687005 (Broad Institute, 2013).

Several values for one entry are separate records, joined by “and”; a condition that tells them apart may be missing. Equal values may be shown once. Results filed as inconclusive are left out. Activity calls are given as the source filed them.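 The calls were made as follows: active = Compounds that reduce signal, with fitted half-maximal dose at or under twice the top valid tested dose; inconclusive = Poor fit, or flat curve losing 30 to 70% of signal; inactive = Potency past limit, flat within 30%, or opposite direction.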

Assay [1] relates to HEK293T viability, ATP luminescence (CellTiter-Glo), 48 h. Nature of the assay: viability loss in HEK293T cells – cell-based, ATP luminescence, cherry-pick samples, cytotoxicity control, dose response (AID 687005).
Experiment in assay [2]: as above
As to conditions: HEK293T viability, ATP luminescence (CellTiter-Glo), 48 h.

For the compound `COc1ccc(C(=O)NC(=S)Nc2cccc(Cl)c2N2CCOCC2)cc1[N+](=O)[O-]`, the concentration at half-maximal activity (AC50) in assay [1] is 25.1 µM and 6.55 µM.
In the case of `COC(=O)C1=C(C)N(Cc2ccccc2)C(=S)NC1c1cccc(OC)c1` (centres undefined), the AC50 in assay [1] is 13.1 µM and 4.84 µM.
As to `COCC#Cc1cnc2c(c1)C(=O)N([C@H](C)CO)C[C@H](C)[C@H](CN(C)C(=O)C1CC1)O2`, the activity change, negative = cytotoxicity in assay [2] (at 26 µM (top of the series)) was -5.58% (inactive).
With `CNC(=O)CN(c1ccc(C)cc1)S(=O)(=O)c1ccccc1`, the activity change, negative = cytotoxicity in assay [2] (at 30 µM (top of the series)) is -17.7% (inactive).
Consider `CCCNC(=O)N1[C@@H](CO)[C@@H](c2ccc(-c3ccccc3)cc2)[C@@H]1CNC(C)=O`, for which, in assay [2] (at 26 µM (top of the series)), the activity change, negative = cytotoxicity is -1.66% (inactive).
The same measure, in the same setting: as for `CCCN1C[C@@H](C)[C@H](OC)CN(C)C(=O)c2ccc(NC(=O)c3cccc(F)c3)cc2OC[C@@H]1C`, the figure is -7.98% (inactive).
Take `C[C@H]1CN([C@@H](C)CO)C(=O)c2cc(NC(=O)Nc3ccc4c(c3)OCO4)ccc2O[C@@H]1CN(C)CC1CCCCC1`: the activity change, negative = cytotoxicity in assay [2] (at 23.5 µM (top of the series)) was -55.7% (inactive).
As to `CNC[C@@H]1Oc2cc(Br)ccc2S(=O)(=O)N([C@H](C)CO)C[C@H]1C`, in assay [2] (at 26 µM (top of the series)), the activity change, negative = cytotoxicity was 28.3% (inactive).
`O=C(Cc1cccs1)N1CCN(c2ccccc2)CC1`: the activity change, negative = cytotoxicity in assay [2] (at 42 µM (top of the series)) was 21.1% (inactive).
Turning to `CN1C(=O)c2cc(NS(=O)(=O)c3cccc(F)c3)ccc2OC[C@H]2O[C@H](CC(=O)O)CC[C@H]21`, the activity change, negative = cytotoxicity in assay [2] (at 26 µM (top of the series)) is 29.9% (inactive).
For `CC(C)NC(=O)N(C)C[C@@H]1OCCCC[C@@H](C)Oc2ccc(NC(=O)c3ccccc3)cc2C(=O)N([C@H](C)CO)C[C@@H]1C`, in assay [2] (at 26 µM (top of the series)), the activity change, negative = cytotoxicity is -7.94% (inactive).
Regarding `CC(C)NC(=O)N(C)C[C@@H]1OCCCC[C@H](C)Oc2ccc(NC(=O)Cc3ccccc3)cc2C(=O)N([C@H](C)CO)C[C@H]1C`, the activity change, negative = cytotoxicity in assay [2] (at 26 µM (top of the series)) was 47.6% (inactive).
Still for that read-out and setting: as for `N#C[C@@H]1[C@@H](c2ccccc2)[C@@H](CO)N1C(=O)Cc1ccccc1`, the figure is -0.39% (inactive); as for `Cc1ccc(S(=O)(=O)N(C)C[C@H]2Oc3c(cccc3N(C)C)C(=O)N([C@@H](C)CO)C[C@H]2C)cc1`, -16.9% (inactive).

Usually AC50 stands for the concentration at which the activity in the assay is half-maximal.
